Values quoted from earlier work in US8394428B1, “Formulations and methods for preventing eyebrow hair loss” (RMV Trademarks, LLC, priority 2010, dated 2013).

Test system: hair loss in human scalp
Conditions: topical application, after administration of cyclophosphamide

SMILES: C=C1/C(=C\C=C2/CCC[C@]3(C)[C@@H]([C@H](C)CCCC(C)(C)O)CC[C@@H]23)C[C@@H](O)C[C@@H]1O [1,25-dihydroxyvitamin D3]
- Prevention or retardation of hair loss: failed to prevent or retard hair loss
